Measured values: publication PMC11876601 (Molecular Systems Biology, 2025)
Several values for one entry are separate records, joined by “and”; a condition that tells them apart may be missing. Identical values can stand only once. Like-named read-outs stand apart in the source and are kept apart here.

What was measured:
[1] = tested on: PANC-1 cells; test: Cell proliferation assay, GEM + ATR inhibitor (Incucyte confluence, 72 h); settings: for EC50: Homo sapiens, mean of replicates; for Curve top: PANC-1, plateau of fitted curve, ratio drug/vehicle confluence;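 as to EC50: in combination experiments GEM is titrated while ATRi is held at a fixed sub-EC50 dose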;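 as to all read-outs here: PANC-1 confluence at 72 h taken as raw values, not normalized to starting confluence, with each experiment run in triplicate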
Experimental: (§1) Cells were seeded at 5000 cells/well into 96-well flat bottom plates (Eppendorf) and allowed to attach overnight. […] Cells were incubated for 72 h at 37 °C and 5% CO2. Cell confluence readouts at 72 h were either normalized to their initial confluence using the Incucyte software (AsPC-1) or used without prior normalization (all others). […] Each experiment was performed in triplicates, the data was plotted as mean ± standard deviation (s.d.).

[2] = tested on: Suit2-07 cells; test: as above; type: cell-based, human; settings: Suit2-07; for EC50: Homo sapiens, 72 h, experiment ATRi (ATR inhibitor alone); for Response: R1; for Curve top: plateau of fitted curve, ratio drug/vehicle confluence;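 as to all read-outs here: Suit2-07 cells grown in 96-well plates at 37 °C, 5% CO2, raw 72 h confluence taken without normalizing to starting confluence, each experiment done in triplicate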
Experimental: as §1

[3] = tested on: MiaPaCa-2; test: cells; set-up: ATPlite luminescence viability of PDAC cell lines, 11-dose single-agent curves, 4-parameter fit; settings: Homo sapiens, MIA PaCa-2, 72 h, read-out: EC50 [nM]
In short: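 Drug-combination screening used cells plated at 1000 to 5000 per well one day before treatment. Final DMSO was 0.2%. Each plate held untreated negative-control wells and 5 µM staurosporine positive-control wells.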

SMILES: C[C@@H]1COCCN1c1cc(C2([S@](C)(=N)=O)CC2)nc(-c2cc[nH]c3nccc2-3)n1 [Ceralasertib]
- EC50 ([1]; PANC-1, 72 h, read-out: EC50 mean [nM], PANC-1, experiment ATRi (ATR inhibitor alone)): 10500 nM
- EC50 ([1]; PANC-1, read-out: EC50 mean [nM], PANC-1, experiment ATRi (ATR inhibitor alone)): 10500 nM
- EC50 ([1]; PANC-1, read-out: EC50 mean [nM], PANC-1, experiment GEM+ATRi_dose1): 12 nM
- EC50 ([1]; PANC-1, read-out: EC50 mean [nM], PANC-1, experiment GEM+ATRi_dose2): 22 nM
- EC50 ([1]; PANC-1, read-out: EC50 mean [nM], PANC-1, experiment GEM+ATRi_dose3): 14.5 nM
- Curve top ([1]; experiment GEM+ATRi_dose1): 0.75 and 0.55 and 0.69
- Curve top ([1]; experiment GEM+ATRi_dose2): 0.69 and 0.59 and 0.62
- Curve top ([1]; experiment GEM+ATRi_dose3): 0.55 and 0.43 and 0.50
- EC50 ([2]; -log10 of EC50 [M], read-out: pEC50 (converted)): 3.24e-06 M
- EC50 ([2]; mean (one replicate), read-out: EC50 mean): 3.24e-06 M
- EC50 ([2]; replicate R1, read-out: EC50): 3.24e-06 M
- Response ([2]; GEM+ATRi_dose1, GEM 0 nM + ATRi 10 nM, in % (unit assumed)): 99.44
- Response ([2]; GEM+ATRi_dose1, GEM 1 nM + ATRi 10 nM, in % (unit assumed)): 97.06
- Response ([2]; GEM+ATRi_dose1, GEM 3 nM + ATRi 10 nM, in % (unit assumed)): 98.33
- Response ([2]; GEM+ATRi_dose1, GEM 10 nM + ATRi 10 nM, in % (unit assumed)): 33.90
- Response ([2]; GEM+ATRi_dose1, GEM 30 nM + ATRi 10 nM, in % (unit assumed)): 18.26
- Response ([2]; GEM+ATRi_dose1, GEM 100 nM + ATRi 10 nM, in % (unit assumed)): 14.84
- Response ([2]; GEM+ATRi_dose1, GEM 300 nM + ATRi 10 nM, in % (unit assumed)): 14.60
- Response ([2]; GEM+ATRi_dose1, GEM 1000 nM + ATRi 10 nM, in % (unit assumed)): 10.84
- Response ([2]; GEM+ATRi_dose1, GEM 3000 nM + ATRi 10 nM, in % (unit assumed)): 13.52
- Response ([2]; GEM+ATRi_dose2, GEM 0 nM + ATRi 3 nM, in % (unit assumed)): 99.06
- Response ([2]; GEM+ATRi_dose2, GEM 1 nM + ATRi 3 nM, in % (unit assumed)): 97.53
- Response ([2]; GEM+ATRi_dose2, GEM 3 nM + ATRi 3 nM, in % (unit assumed)): 42.89
- Response ([2]; GEM+ATRi_dose2, GEM 10 nM + ATRi 3 nM, in % (unit assumed)): 18.83
- Response ([2]; GEM+ATRi_dose2, GEM 30 nM + ATRi 3 nM, in % (unit assumed)): 15.03
- Response ([2]; GEM+ATRi_dose2, GEM 100 nM + ATRi 3 nM, in % (unit assumed)): 14.03
- Response ([2]; GEM+ATRi_dose2, GEM 300 nM + ATRi 3 nM, in % (unit assumed)): 10.54
- Response ([2]; GEM+ATRi_dose2, GEM 1000 nM + ATRi 3 nM, in % (unit assumed)): 10.54
- Response ([2]; GEM+ATRi_dose2, GEM 3000 nM + ATRi 3 nM, in % (unit assumed)): 14.48
- Response ([2]; GEM+ATRi_dose3, GEM 0 nM + ATRi 30 nM, in % (unit assumed)): 99.04
- Response ([2]; GEM+ATRi_dose3, GEM 1 nM + ATRi 30 nM, in % (unit assumed)): 98.92
- Response ([2]; GEM+ATRi_dose3, GEM 3 nM + ATRi 30 nM, in % (unit assumed)): 74.44
- Response ([2]; GEM+ATRi_dose3, GEM 10 nM + ATRi 30 nM, in % (unit assumed)): 18.78
- Response ([2]; GEM+ATRi_dose3, GEM 30 nM + ATRi 30 nM): 15.93
- Response ([2]; GEM+ATRi_dose3, GEM 100 nM + ATRi 30 nM, in % (unit assumed)): 13.11
- Response ([2]; GEM+ATRi_dose3, GEM 300 nM + ATRi 30 nM, in % (unit assumed)): 12.75
- Response ([2]; GEM+ATRi_dose3, GEM 1000 nM + ATRi 30 nM, in % (unit assumed)): 9.23
- Response ([2]; GEM+ATRi_dose3, GEM 3000 nM + ATRi 30 nM, in % (unit assumed)): 13.00
- Response ([2]; experiment ATRi, ATRi 3 nM, GEM 0 nM, in % (unit assumed)): 99.07
- Response ([2]; experiment ATRi, ATRi 10 nM, GEM 0 nM, in % (unit assumed)): 99.08
- Response ([2]; experiment ATRi, ATRi 30 nM, GEM 0 nM, in % (unit assumed)): 98.55
- Response ([2]; experiment ATRi, ATRi 100 nM, GEM 0 nM, in % (unit assumed)): 98.02
- Response ([2]; experiment ATRi, ATRi 300 nM, GEM 0 nM, in % (unit assumed)): 95.91
- Response ([2]; experiment ATRi, ATRi 1000 nM, GEM 0 nM, in % (unit assumed)): 89.97
- Response ([2]; experiment ATRi, ATRi 3000 nM, GEM 0 nM, in % (unit assumed)): 57.79
- Response ([2]; experiment ATRi, ATRi 10000 nM, GEM 0 nM, in % (unit assumed)): 20.77
- Curve top ([2]; experiment GEM+ATRi_dose1): 0.15
- Curve top ([2]; experiment GEM+ATRi_dose2): 0.14
- Curve top ([2]; experiment GEM+ATRi_dose3): 0.13

SMILES: CCN1CCN(Cc2ccc(Nc3ncc(F)c(-c4cc(F)c5nc(C)n(C(C)C)c5c4)n3)nc2)CC1 [Abemaciclib]
- EC50 [3]: 82.2 nM
